Data taken from patent US7799821B2, “Therapeutic compounds” (Allergan, Inc., priority 2004, dated 2010).

Key:
human EP2 receptors = biological target: T1, human EP2 receptors (Homo sapiens, UniProt P43116); experiment: Competition radioligand binding ([3H]PGE2), EP2; details: read-out: BINDING IC50 HEP2
T1 construct: expressed in transfected cells; host or cells: HEK 293

hEP1 = biological target: T2, hEP1 (Homo sapiens, UniProt P34995); experiment: FLIPR calcium signal, hEP1; format: cell-based; details: FLIPR Ca2+ signal, HEK-293(EBNA); read-out: FUNCTIONAL EC50 HEP1
T2 construct: expressed in transfected cells; host or cells: HEK-293(EBNA)
T2 sequence (P34995 1-402): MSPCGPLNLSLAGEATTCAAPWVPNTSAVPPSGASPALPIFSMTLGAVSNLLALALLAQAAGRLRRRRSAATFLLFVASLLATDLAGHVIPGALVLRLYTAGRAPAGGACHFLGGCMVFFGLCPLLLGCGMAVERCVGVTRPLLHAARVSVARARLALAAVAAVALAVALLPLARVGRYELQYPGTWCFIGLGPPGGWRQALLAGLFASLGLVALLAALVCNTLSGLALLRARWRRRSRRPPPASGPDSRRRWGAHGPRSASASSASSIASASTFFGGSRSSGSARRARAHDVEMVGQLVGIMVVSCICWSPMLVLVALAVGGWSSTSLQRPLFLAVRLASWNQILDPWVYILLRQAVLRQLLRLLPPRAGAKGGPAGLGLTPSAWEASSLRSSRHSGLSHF
Description: (§1) HEK-293(EBNA) cells, stably expressing one type or subtype of recombinant human prostaglandin receptors (prostaglandin receptors expressed: hDP/Gqs5; hEP1; hEP2/Gqs5; hEP3A/Gqi5; hEP4/Gqs5; hFP; hIP; hTP), were cultured in 100 mm culture dishes in high-glucose DMEM medium containing 10% fetal bovine serum, 2 mM 1-glutamine, 250 μg/ml geneticin (G418) and 200 μg/ml hygromycin B as selection markers, and 100 units/ml penicillin G, 100 μg/ml streptomycin and 0.25 μg/ml amphotericin B. • (b) Calcium Signal Studies on the FLIPR™
(§2) Cells were seeded at a density of 5×10^4 cells per well in Biocoat® Poly-D-lysine-coated black-wall, clear-bottom 96-well plates (Becton-Dickinson) and allowed to attach overnight in an incubator at 37° C. Cells were then washed two times with HBSS-HEPES buffer (Hanks Balanced Salt Solution without bicarbonate and phenol red, 20 mM HEPES, pH 7.4) using a Denley Cellwash plate washer (Labsystems). After 45 minutes of dye-loading in the dark, using the calcium-sensitive dye Fluo-4 AM at a final concentration of 2 μM, plates were washed four times with HBSS-HEPES buffer to remove excess dye leaving 100 μl in each well. Plates were re-equilibrated to 37° C. for a few minutes.
(§3) Cells were excited with an Argon laser at 488 nm, and emission was measured through a 510-570 nm bandwidth emission filter (FLIPR™, Molecular Devices, Sunnyvale, Calif.). Drug solution was added in a 50 μl volume to each well to give the desired final concentration. The peak increase in fluorescence intensity was recorded for each well. On each plate, four wells each served as negative (HBSS-HEPES buffer) and positive controls (standard agonists: BW245C (hDP); PGE2 (hEP1; hEP2/Gqs5; hEP3A/Gqi5; hEP4/Gqs5); PGF2α (hFP); carbacyclin (hIP); U-46619 (hTP), depending on receptor). The peak fluorescence change in each drug-containing well was then expressed relative to the controls.
(§4) Compounds were tested in a high-throughput (HTS) or concentration-response (CoRe) format. In the HTS format, forty-four compounds per plate were examined in duplicates at a concentration of 10^−5 M. To generate concentration-response curves, four compounds per plate were tested in duplicates in a concentration range between 10^−5 and 10^−11 M. The duplicate values were averaged. In either, HTS or CoRe format each compound was tested on at least 3 separate plates using cells from different passages to give an n≧3.

hEP2/Gqs5 = biological target: T3, hEP2/Gqs5 (Homo sapiens, UniProt P43116); experiment: FLIPR calcium signal, hEP2; format: cell-based; details: FLIPR Ca2+ signal, HEK-293(EBNA); read-out: FUNCTIONAL EC50 HEP2
T3 construct: expressed in transfected cells; host or cells: HEK-293(EBNA)
Summary of the method: (§5)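 HEK-293(EBNA) cells stably expressing the recombinant human receptor were loaded with 2 μM Fluo-4 AM for 45 min and read on FLIPR at 37° C in HBSS-HEPES pH 7.4. Peak fluorescence rise was expressed relative to buffer and standard agonist controls (BW245C, PGE2 or U-46619 by receptor); compounds were run 10^−5 to 10^−11 M in duplicate, n≧3.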

hTP = biological target: T4, hTP (Homo sapiens, UniProt P21731); experiment: FLIPR calcium signal, hTP; format: cell-based; details: FLIPR Ca2+ signal, HEK-293(EBNA); read-out: FUNCTIONAL EC50 HTP
T4 construct: expressed in transfected cells; host or cells: HEK-293(EBNA)
T4 sequence (P21731 1-343): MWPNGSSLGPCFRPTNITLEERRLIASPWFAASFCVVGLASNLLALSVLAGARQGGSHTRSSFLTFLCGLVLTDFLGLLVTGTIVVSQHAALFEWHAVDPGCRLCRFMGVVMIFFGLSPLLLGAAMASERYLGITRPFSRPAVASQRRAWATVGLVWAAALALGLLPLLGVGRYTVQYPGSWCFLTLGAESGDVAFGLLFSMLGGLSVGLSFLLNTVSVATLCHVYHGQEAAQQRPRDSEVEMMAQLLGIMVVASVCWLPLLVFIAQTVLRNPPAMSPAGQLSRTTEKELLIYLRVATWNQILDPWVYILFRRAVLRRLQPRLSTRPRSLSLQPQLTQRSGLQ
Description: as §1, §2, §3, §4

hEP3A/Gqi5 = biological target: T5, hEP3A/Gqi5 (Homo sapiens, UniProt P43115); experiment: FLIPR calcium signal, hEP3A; format: cell-based; details: FLIPR Ca2+ signal, HEK-293(EBNA); read-out: FUNCTIONAL EC50 HEP3A
T5 construct: expressed in transfected cells; host or cells: HEK-293(EBNA)
T5 sequence (P43115 1-390): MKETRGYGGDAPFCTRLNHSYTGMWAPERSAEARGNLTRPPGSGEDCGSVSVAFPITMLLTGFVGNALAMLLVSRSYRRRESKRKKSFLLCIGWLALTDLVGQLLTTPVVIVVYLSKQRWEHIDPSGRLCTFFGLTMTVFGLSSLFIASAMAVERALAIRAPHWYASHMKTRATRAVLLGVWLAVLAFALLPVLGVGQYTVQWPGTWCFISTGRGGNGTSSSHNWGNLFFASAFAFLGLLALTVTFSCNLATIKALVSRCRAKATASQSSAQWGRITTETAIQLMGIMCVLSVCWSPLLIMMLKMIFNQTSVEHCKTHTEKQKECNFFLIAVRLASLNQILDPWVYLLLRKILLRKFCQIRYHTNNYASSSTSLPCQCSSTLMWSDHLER
Description: as §1, §2, §3, §4

hDP/Gqs5 = biological target: T6, hDP/Gqs5 (Homo sapiens, UniProt Q13258); experiment: FLIPR calcium signal, hDP; format: cell-based; details: FLIPR Ca2+ signal, HEK-293(EBNA); read-out: FUNCTIONAL EC50 HDP
T6 construct: expressed in transfected cells; host or cells: HEK-293(EBNA)
T6 sequence (Q13258 1-359): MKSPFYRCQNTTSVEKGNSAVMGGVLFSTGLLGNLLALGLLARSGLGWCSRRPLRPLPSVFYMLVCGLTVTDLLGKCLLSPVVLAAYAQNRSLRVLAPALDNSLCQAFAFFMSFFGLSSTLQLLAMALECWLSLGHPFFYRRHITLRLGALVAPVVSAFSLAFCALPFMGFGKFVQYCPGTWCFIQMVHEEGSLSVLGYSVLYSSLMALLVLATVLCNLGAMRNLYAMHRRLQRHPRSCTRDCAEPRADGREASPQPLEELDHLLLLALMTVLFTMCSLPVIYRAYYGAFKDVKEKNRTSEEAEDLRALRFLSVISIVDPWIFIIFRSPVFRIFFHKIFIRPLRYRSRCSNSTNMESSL
Description: as §1, §2, §3, §4

hIP = biological target: T7, hIP (Homo sapiens, UniProt P43119); experiment: FLIPR calcium signal, hIP; format: cell-based; details: FLIPR Ca2+ signal, HEK-293(EBNA); read-out: FUNCTIONAL EC50 HIP
T7 construct: expressed in transfected cells; host or cells: HEK-293(EBNA)
Description: as §1, §2, §3, §4

hEP4/Gqs5 = biological target: T8, hEP4/Gqs5 (Homo sapiens, UniProt P35408); experiment: FLIPR calcium signal, hEP4; format: cell-based; details: FLIPR Ca2+ signal, HEK-293(EBNA); read-out: FUNCTIONAL EC50 HEP4
T8 construct: expressed in transfected cells; host or cells: HEK-293(EBNA)
Summary of the method: as §5

T3 sequence (P43116 whole entry): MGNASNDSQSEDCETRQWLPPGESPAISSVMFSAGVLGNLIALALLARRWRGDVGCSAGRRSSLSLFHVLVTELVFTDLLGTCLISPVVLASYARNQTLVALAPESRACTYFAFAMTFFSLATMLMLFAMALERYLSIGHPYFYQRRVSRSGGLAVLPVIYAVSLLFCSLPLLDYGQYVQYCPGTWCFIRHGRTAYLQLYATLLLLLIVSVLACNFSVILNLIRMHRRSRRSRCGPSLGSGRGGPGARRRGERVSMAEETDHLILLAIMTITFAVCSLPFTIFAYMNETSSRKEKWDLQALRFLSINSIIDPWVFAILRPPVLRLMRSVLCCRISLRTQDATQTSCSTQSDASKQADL
T1 sequence (P43116 whole entry): as above
T8 sequence (P35408 whole entry): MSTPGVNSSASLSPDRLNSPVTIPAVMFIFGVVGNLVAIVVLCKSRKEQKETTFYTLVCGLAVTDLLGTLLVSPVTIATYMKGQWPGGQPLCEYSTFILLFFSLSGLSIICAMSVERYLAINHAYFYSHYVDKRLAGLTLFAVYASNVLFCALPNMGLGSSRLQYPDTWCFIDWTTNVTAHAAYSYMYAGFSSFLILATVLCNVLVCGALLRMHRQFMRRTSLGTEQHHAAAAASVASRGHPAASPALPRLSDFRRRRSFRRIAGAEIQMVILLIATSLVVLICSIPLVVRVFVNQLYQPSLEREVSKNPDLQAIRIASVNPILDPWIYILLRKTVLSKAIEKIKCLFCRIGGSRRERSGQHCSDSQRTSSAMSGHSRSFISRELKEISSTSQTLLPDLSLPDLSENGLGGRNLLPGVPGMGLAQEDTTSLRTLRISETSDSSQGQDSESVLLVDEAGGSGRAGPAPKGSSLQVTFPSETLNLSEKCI
T7 sequence (P43119 whole entry): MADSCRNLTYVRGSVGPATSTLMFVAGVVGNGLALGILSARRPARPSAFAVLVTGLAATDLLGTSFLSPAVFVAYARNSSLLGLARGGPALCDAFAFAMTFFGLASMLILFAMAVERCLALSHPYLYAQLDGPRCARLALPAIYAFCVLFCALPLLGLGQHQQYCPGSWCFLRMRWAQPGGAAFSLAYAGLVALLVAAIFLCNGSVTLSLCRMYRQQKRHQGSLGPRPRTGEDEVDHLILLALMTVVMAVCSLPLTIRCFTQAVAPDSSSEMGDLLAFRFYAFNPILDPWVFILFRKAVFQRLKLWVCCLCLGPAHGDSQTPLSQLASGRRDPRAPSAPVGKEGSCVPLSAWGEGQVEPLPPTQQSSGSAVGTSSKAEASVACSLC

| SMILES | IC50 (human EP2 receptors) | EC50 (hEP1) | EC50 (hEP2/Gqs5) | EC50 (hTP) | EC50 (hEP3A/Gqi5) | EC50 (hDP/Gqs5) | EC50 (hIP) | EC50 (hEP4/Gqs5) |
| --- | --- | --- | --- | --- | --- | --- | --- | --- |
| O=C(O)CCCCCC[C@@H]1[C@@H](c2ccc3c(c2)CCC3)[C@H](O)C[C@H]1Cl | 6.25 µM | 0.221 µM | 0.818 µM | 0.2 µM |  |  |  |  |
| CC(C)(C)c1ccc([C@@H]2[C@@H](CCCCCCC(=O)O)[C@H](Cl)C[C@H]2O)cc1 [drawing 70] |  | > 10 µM | 0.264 µM | > 10 µM | > 10 µM | > 10 µM |  |  |
| CC(C)(C)c1ccc([C@H]2[C@H](O)CC(=O)[C@@H]2CCCCCCC(=O)O)cc1 |  | > 10 µM | 0.102 µM | 4.27 µM | 3.39 µM |  | > 10 µM |  |
| O=C(O)CCCCCC[C@@H]1[C@@H](c2ccc3c(c2)CCC3O)[C@H](O)C[C@H]1Cl (some centres unmarked) | 13.1 µM |  | 0.529 µM | 2.99 µM |  |  |  |  |
| O=C(O)CCCCCC[C@@H]1[C@@H](c2ccc(C3(O)CCC3)cc2)[C@H](O)C[C@H]1Cl |  |  | 0.743 µM | > 10 µM |  |  |  |  |

Further lines, results first:

| IC50 (human EP2 receptors) | EC50 (hEP1) | EC50 (hEP2/Gqs5) | EC50 (hTP) | EC50 (hEP3A/Gqi5) | EC50 (hDP/Gqs5) | EC50 (hIP) | EC50 (hEP4/Gqs5) | SMILES |
| --- | --- | --- | --- | --- | --- | --- | --- | --- |
|  |  | > 10 µM |  | > 10 µM | > 10 µM | > 10 µM | > 10 µM | CCCC1(C(O)c2cccc([C@H]3[C@H](O)CC(=O)[C@@H]3CCCCCCC(=O)OC)c2)CCC1 (some centres unmarked) |
|  |  | 0.322 µM | > 10 µM | 0.455 µM | > 10 µM |  |  | CCCC1(C(O)c2cccc([C@@H]3[C@@H](C/C=C\CCCC(=O)O)[C@H](Cl)C[C@H]3O)c2)CCC1 (some centres unmarked) |
|  |  | 0.936 µM | > 10 µM | > 10 µM |  |  | > 10 µM | COC(=O)CCCCCC[C@H]1C(=O)C[C@@H](O)[C@@H]1c1ccc(C(C)(C)C)cc1 |
